{"source": "patent US20160274087A1", "about": "“SCREENING ASSAY FOR AGENTS THAT INFLUENCE BETA CELL NUMBER AND/OR PHENOTYPE” (VRIJE UNIVERSITEIT BRUSSEL, priority 2013, published 2016)", "assay_type_in_all_cases": "cell-based", "key": {"[1]": {"test_system": "rat beta cells", "experiment": "Beta cell viability / cell death (propidium iodide assay)", "settings": "LOPAC screen at 1 μM; adult rat beta cells; day 6; control medium 97", "text": "Numbers of living beta cells were obtained by subtracting the PI-positive cell numbers from the Ho-positive cell numbers, and correcting for the percent insulin-negative cells, as determined following insulin-immunofluorescence staining. They were expressed as percent of the numbers on day 1. […] To detect beta cells that underwent two successive cycles, cells were sequentially exposed to two different thymidine-analogs, first EdU from day 3 to 6, and then BrdU (100 μmol/l) from day 7 to 10, with a 24-hour label-free period in between. EdU-positive (EdU^+) nuclei were detected with the Click-iT Assay kit (Invitrogen), while BrdU-positive (BrdU^+) nuclei were identified with anti-BrdU antibody.\nAbsolute number of cells was determined by whole-well imaging using the BD-PathwayBioimager855 (BD-Biosciences). IPLab and AttoVision software packages (BD-Biosciences) were used for image background subtraction, segmentation and quantification.\nFreshly purified beta cells were cultured in control medium for 24 h prior to the addition of the LOPAC test compounds (day 1). The culture medium was refreshed on day 3 and the cells were then cultured further with 5-ethynyl-2′-deoxyuridine (EdU; 10 μM) up to day 6. […] Thus, a compound is considered a hit only if it increases the percent EdU incorporation to above three standard deviation of the plate-averaged percent EdU incorporation."}, "[2]": {"test_system": "rat beta cells", "experiment": "Beta cell DNA synthesis/proliferation by EdU (and BrdU) incorporation, incl. LOPAC screen", "method_in_brief": "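Sorted beta cells on 804G matrix were cultured at 37° C in Ham F10 with 50 μM IBMX and 10 mM glucose. In the LOPAC screen, compounds were added on day 1, with EdU (10 μM) from days 3–6. Imaged % EdU-positive cells defined hits at a Z-score above three SD.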"}, "[3]": {"test_system": "rat beta cells", "experiment": "Glucose utilization and oxidation by isolated beta cells", "settings": "6-day HC treatment", "description": "FIG. 9: Glucose utilization and oxidation by isolated beta cells after treatment with HC. Purified rat beta cells were cultured for six days in control medium (white squares) or with HC (black triangles) at 10 mM glucose. Glucose utilization (A) was determined by the rate of D-(5-^3H)glucose conversion into ^3H2O and glucose oxidation (B) by that of D-(U-^14C)glucose into ^14CO2 during a 2 h incubation period at the indicated concentrations of glucose without HC. Values represent means±SEM, n=6; *, p<0.05 versus control.\nBecause GC signaling controls metabolic processes including glucose metabolism and we have previously reported that glucose regulates rat beta cell numbers through effects on beta cell survival and proliferation (Assefa et al., 2014)(Example 1), we investigated whether HC-induced beta cell proliferation is associated with a change in glucose metabolism. First, the metabolic effect of a 6-day treatment with HC was analyzed by 2 h glucose utilization and oxidation rates at different glucose concentrations. […] Further, HC treatment doubles the rates of both utilization and oxidation at 10 mM glucose as compared to those in control cells (p<0.05)."}}, "data": [{"smiles": "C[C@]12CCC(=O)C=C1CC[C@@H]1[C@@H]2[C@@H](O)C[C@@]2(C)[C@H]1CC[C@]2(O)C(=O)CO", "note": "[Hydrocortisone, hydrocortisone]", "values": [{"measurement": "Percent viable cells", "setting": "[1]", "value": 97, "unit": "%"}, {"measurement": "Percent EdU+ cells", "setting": "[2]; LOPAC screen at 1 μM, adult rat beta cells, EdU day 3 to 6, control medium 5.6", "value": 28.0, "unit": "%"}, {"measurement": "Z-Score", "setting": "[2]; LOPAC screen at 1 μM, adult rat beta cells, EdU day 3 to 6, hit cut-off three standard deviations", "value": 5.4}, {"measurement": "final concentration of optimal potency (dose-response studies)", "setting": "[2]; survival and proliferation of rat beta cells, data not shown", "value": 1000, "unit": "nM"}, {"measurement": "rates of glucose utilization and oxidation compared to control cells", "setting": "[3]; 10 mM glucose", "value": "doubles"}, {"measurement": "increase of glucose utilization and oxidation over control cells", "setting": "[3]; 20 mM glucose", "value": 50, "unit": "%"}]}]}
